Measured values taken from patent US20100179220A1, “METHOD FOR THE TREATMENT OF TINNITUS” (Merck Patent GmbH, priority 2006, published 2010).
Several values for one entry are separate records, joined by “and”; a condition that tells them apart may be missing. Identical values can stand only once.

Legend:
[1] = test system: patients with sensorineural tinnitus; experiment: randomized double-blind placebo-controlled clinical trial of acamprosate in tinnitus; type: in vivo, human; design: key to tinnitus scale, Mean / tinnitus scale, Median / tinnitus scale, Minimum / tinnitus scale, Maximum: tinnitus disturbance score, 0 to 10 (0.5 steps allowed)
Description: We selected 50 patients with tinnitus seen at OTOSUL, Otorrinolaringologia Sul-fluminense, Hospital São Camilo, Volta Redonda, R J, between October 2003 and October 2004. The inclusion criteria were tinnitus of sensorineural etiology, excluding the cases of external and middle ear disease and concomitant temporomandibular joint disorders. Pure tone audiometry, vocal audiometry and immittanciometry were performed in all patients, and we excluded those with conductive and mixed hearing loss and those with tympanogram curve types A-r, A-d, C and B. The audiometer used was AMPLAID A 177 PLUS, and the Immittanciometer was AMPLAID 750. We considered the thresholds up to 25 dB (normal hearing), 26 to 40 dB (mild loss), 41 to 70 dB (moderate loss), 71 to 90 dB (severe loss) and over 90 dB (profound loss).
The patients were classified according to the following parameters:
age, gender, continuous or intermittent tinnitus, uni or bilateral tinnitus, tinnitus characteristics (type of associated noise), time of tinnitus, associated symptoms (hypo and hyper loss, dizziness, ear fullness), probable tinnitus etiology, previous use of drugs to treat tinnitus, and baseline tinnitus score, given by the patient, ranging from 0 to 10, according to how much it disturbed the patient
Patients were asked to score tinnitus from 1 to 10 according to how much they were disturbed by it. We allowed 0.5 scores as well.
Patients were randomly divided into 2 groups of 25 patients: one group received acamprosate 333 mg, TID, and the other received placebo, TID, both groups for 90 days. All details of the study were clarified to the patients by the assistant physician and they all signed the informed consent term. It was a double-blind study approved by the Medical Ethical Committee, Hospital São Camilo.
Patients were analyzed at days 30, 60 and 90 after use of the drug and at each visit, the patient scored the tinnitus status, as well as reported side effects.
The statistical analysis was performed based on the following methods:
t Student test for independent samples or the Mann-Whitney test to compare quantitative data between the two groups (acamprosate and placebo) chi-square test or Fisher exact test to compare qualitative data, Friedman Variance Analysis to analyze the progression of tinnitus scale (quantitative data) throughout time (four assessments within 3 months) with the treatment with acamprosate and placebo.
The test of multiple comparisons based on the statistics of Friedman was applied to identify which moments were different. The test of multiple comparisons is a test complementary to Variance Analysis.
The criterion for determination of significance was adopted as 5%, that is, when p value of the statistical test was smaller or equal to 0.05, meaning there was statistical significance. The statistical analysis was processed by the statistical software SAS System.

GABA reuptake sites = conditions: rats; cited from earlier work
patients with tinnitus = conditions: cited from earlier work; for improvement of tinnitus: literature studies, only baclofen and caroverine double blind placebo-controlled
[2] = acamprosate 333 mg TID, 90 days, n=23

Compound: CC(=O)NCCCS(=O)(=O)O [acamprosate, calcium acetyl-homotaurinate]
- tinnitus scale, Maximum ([1]; Baseline, n=23): 10
- tinnitus scale, Mean ([1]; Baseline, n=23): 6.74
- tinnitus scale, Median ([1]; Baseline, n=23): 7
- tinnitus scale, Minimum ([1]; Baseline, n=23): 3
- tinnitus scale, Maximum ([1]; Score 30 d, 333 mg TID, n=23): 10
- tinnitus scale, Mean ([1]; Score 30 d, 333 mg TID, n=23): 5.39
- tinnitus scale, Median ([1]; Score 30 d, 333 mg TID, n=23): 5
- tinnitus scale, Minimum ([1]; Score 30 d, 333 mg TID, n=23): 2
- tinnitus scale, Maximum ([1]; Score 60 d, 333 mg TID, n=23): 9
- tinnitus scale, Mean ([1]; Score 60 d, 333 mg TID, n=23): 3.98
- tinnitus scale, Median ([1]; Score 60 d, 333 mg TID, n=23): 4
- tinnitus scale, Minimum ([1]; Score 60 d, 333 mg TID, n=23): 0
- tinnitus scale, Maximum ([1]; Score 90 d, 333 mg TID, n=23): 10
- tinnitus scale, Mean ([1]; Score 90 d, 333 mg TID, n=23): 2.87
- tinnitus scale, Median ([1]; Score 90 d, 333 mg TID, n=23): 2
- tinnitus scale, Minimum ([1]; Score 90 d, 333 mg TID, n=23): 0
- worsening in score ([1]; acamprosate 333 mg TID, 90 days): no worsening in score has been observed
- severity of observed side effects ([1]; acamprosate 333 mg TID, 90 days, epigastralgia, choking): mild
- patients who did not report improvement [1, 2]: 13.04%
- patients who reported improvement below 50% [1, 2]: 39.13%
- subjects who reported that tinnitus had disappeared [1, 2]: 13.04%
- incidence of side effects ([1]; acamprosate 333 mg TID, 90 days, placebo 20%, p=0.35): 12%
- proportion of improvement at 90 days equal or greater than 50% ([1]; acamprosate 333 mg TID, 90 days, subjective tinnitus score, placebo 11.1%, p=0.012): 47.8% and 47.83%
- patients who interrupted treatment before the end of assessment ([1]; acamprosate group of 25, placebo 7): 2
- patients who suspended treatment owing to side effects ([1]; acamprosate group, 50% of those who interrupted): One
- variation of tinnitus scale as a result of time (Friedman Variance Analysis) ([1]; baseline, 30, 60, 90 days, 333 mg TID, p<0.0001): significant decrease
- effect on GABA reuptake sites and GABA transmission (GABA reuptake sites): increases the number of reuptake sites of GABA

Compound: NCC(CC(=O)O)c1ccc(Cl)cc1 (stereo not drawn) [baclofen]
- improvement of tinnitus (patients with tinnitus): about 9.7%

Compound: NC(=O)N1c2ccccc2C=Cc2ccccc21 [carbamazepine]
- improvement, % of the cases of tinnitus (patients with tinnitus; progressively increasing doses of 50 to 600 mg a day, defined by positive lidocaine test): 50%

Compound: CCN(CC)CCn1c(=O)c(Cc2ccc(OC)cc2)nc2ccccc21 [caroverine]
- improvement of tinnitus (patients with tinnitus): 63.3%

Compound: O=C1CN=C(c2ccccc2Cl)c2cc([N+](=O)[O-])ccc2N1 [clonazepam]
- improvement of tinnitus (patients with tinnitus): 32%

Compound: c1cnc(N2CCN(Cc3ccc4c(c3)OCO4)CC2)nc1 [piribedil]
- improvement of tinnitus (patients with tinnitus): 92.6%

Compound: COc1ccc(CN2CCNCC2)c(OC)c1OC [trimetazidine]
- improvement of tinnitus (patients with tinnitus): 89%
